Results on 2 molecules are retold here after patent US12605368B2, “Suppression of neuroinflammation and composition and method therefor” (Kyoto University, priority 2020, dated 2026).

One assay concerns the target DYRK1A (Homo sapiens, UniProt Q13627). Kind of assay: in vitro kinase activity assay against DYRK1A. Type of assay: biochemical. The procedure: In Vitro Enzyme Activity Assay
The in vitro kinase activity assay was performed as described previously (Ogawa et al., Nat Commun 1, 86, 2010).

The test system of another assay is microglia. Kind of assay: cytokine production of microglia upon LPS stimulation (qPCR, ELISA), with Nrf2 siRNA. Format: cell-based. To be noted: for up-regulation of proinflammatory cytokine gene expression by LPS stimulation: qPCR and ELISA, FIGS. 2A, 2B; for up-regulation of proinflammatory cytokine gene expression by LPS stimulation / induction of expression of several chemokines and iNOS mRNA: LPS stimulation; for induction of expression of several chemokines and iNOS mRNA: FIG. 2A. The procedure: Total RNA was extracted with RNeasy kit (Qiagen) followed by cDNA synthesis using iScript (Bio-Rad). Quantitative PCRs were carried out with SYBR green ExTaq (TaKaRa). Primers for genes were designed by using PrimerBank (Wang et al., 2012).
Studies were made on whether the compounds 1 and 2 would suppress cytokine production of microglia.
In the cells treated with Nrf2 siRNA, the suppression of cytokine production was not observed. *P<0.05.
A general note: In qPCR the cycle at which signal appears reflects the starting amount.

A further assay relates to microglial cells BV-2. Kind of assay: Western blotting of BV-2 cells treated with compound. Format: cell-based. To be noted: time-dependently and dose-dependently, FIG. 1A. As for the experimental part:
(§1) Microglial cell line BV-2 was maintained in high glucose Dulbecco's modified Eagle's medium (DMEM) (Nacalai Tesque) supplemented with 10% fetal bovine serum (Nichirei Bioscienses), 100 U/mL penicillin, and 100 μg/mL streptomycine. Primary hippocampal and cortical neuronal cultures were prepared from embryonic day 18 mice and maintained in Neurobasal medium (Life Technologies) supplemented with 2% B27 supplement, 100 U/mL, penicillin, 100 μg/mL streptomycin, and 0.5 mM L-glutamine. Dopaminergic neuronal cultures were prepared from ventral midbrain of embryonic day 13 mice and maintained in Neurobasal medium (Life Technologies) supplemented with 10% fetal bovine serum, 2% B27 supplement, 10 ng/mL GDNF, 100 U/mL penicillin, and 100 μg/mL streptomycin. For depletion of glial cells, 5 μM cytosine β-D-arabinofuranoside, 10 μM 5-fluorouracil, and 10 μM uridine (all from Sigma-Aldrich) were added at 2-day culture. Mixed glial cultures were obtained from new born murine pups (P1 to P4) and maintained in T75 or T175 flask. Media were changed every 3-4 days until the cells get confluent. Microglia were obtained either by shaking vigorously or Cd11b-positive selection (Invitrogen). For co-culture experiments, murine glial cell cultures were prepared from MGE (Medial Ganglionic Eminence) of embryonic day 13 and cultured in PLL-coated dish. Cultures were passaged twice with trypsin, and used for co-cultured assay with iPSC-derived neurons. 1039A1 iPS cells were established and maintained as described previously (Nakagawa et al., Sci Rep 4, 3594, 2014). […]
Total protein was extracted from cell culture samples using RIPA buffer (Wako) containing protease inhibitor cocktail (Nacalai Tesque) and phosphatase inhibitor cocktail (Nacalai Tesque). After 15 minutes of centrifugation at 15,000 rpm at 4° C., supernatants were collected and protein concentrations were measured using a Pierce 660 nm Protein Assay Kit (Thermo Scientific). […]
A general note: Immunoblotting shows a protein as a band on a membrane.

Assay [1] deals with Nrf2 in Cd11b-positive microglial cells. Kind of assay: Nrf2 immunocytochemistry in glial cells (nuclei of Cd11b-positive cells), with p21 siRNA. Format: cell-based, murine. The settings on record: for Nrf2 expression: data not shown; for expression of Nrf2 in Cd11b-positive microglial cells: glial cells, FIGS. 1B and 1C. As for the experimental part: Cells were plated in 96-well purecoat amine coated plates and treated as desired for each specific experiment. After immunolabeling was complete, automated image acquisition (with twenty-fold magnification of objective lens, 2×2 CCD binning, twenty-five fields per well) and analysis was performed using Opera Phenix (manufactured by PerkinElmer Co., Ltd.) equipped with Harmony software. Image acquisition was performed using a fluorescence microscope (BZ-9000, manufactured by Keyence corporation) or a confocal microscope (SP-8, manufactured by Leica) as well.
Microglial cell line BV-2 was maintained in high glucose Dulbecco's modified Eagle's medium (DMEM) (Nacalai Tesque) supplemented with 10% fetal bovine serum (Nichirei Bioscienses), 100 U/mL penicillin, and 100 μg/mL streptomycine. Primary hippocampal and cortical neuronal cultures were prepared from embryonic day 18 mice and maintained in Neurobasal medium (Life Technologies) supplemented with 2% B27 supplement, 100 U/mL, penicillin, 100 μg/mL streptomycin, and 0.5 mM L-glutamine. Dopaminergic neuronal cultures were prepared from ventral midbrain of embryonic day 13 mice and maintained in Neurobasal medium (Life Technologies) supplemented with 10% fetal bovine serum, 2% B27 supplement, 10 ng/mL GDNF, 100 U/mL penicillin, and 100 μg/mL streptomycin. For depletion of glial cells, 5 μM cytosine β-D-arabinofuranoside, 10 μM 5-fluorouracil, and 10 μM uridine (all from Sigma-Aldrich) were added at 2-day culture. Mixed glial cultures were obtained from new born murine pups (P1 to P4) and maintained in T75 or T175 flask. Media were changed every 3-4 days until the cells get confluent. Microglia were obtained either by shaking vigorously or Cd11b-positive selection (Invitrogen). For co-culture experiments, murine glial cell cultures were prepared from MGE (Medial Ganglionic Eminence) of embryonic day 13 and cultured in PLL-coated dish. Cultures were passaged twice with trypsin, and used for co-cultured assay with iPSC-derived neurons. 1039A1 iPS cells were established and maintained as described previously (Nakagawa et al., Sci Rep 4, 3594, 2014). Induction of dopaminergic precursor cells was performed as described previously (Doi et al., Stem Cell Reports 2, 337-350, 2014, Kikuchi et al., Nature 548, 592-596, 2017). Briefly, hiPS cells 1039A1 were plated on Laminin511, and differentiated in GMEM medium containing 8% KSR, Y27632 (Wako), A-83-01 (Wako), LDN193178 (STEMGENT). Purmorphamine (Wako), FGF8 (Wako, from day 1 to day 7), and CHIR99021 (Wako, from day 3 to day 12) were added. After cell sorting of Corin+ cells, cells were replated onto low attachment 96-well plates for neurosphere cultures and maintained in neurobasal medium with B27 supplement, 2 mM L-glutamine (Invitrogen), 10 ng/mL GDNF, 200 μM ascorbic acid, 20 ng/mL BDNF (all from Wako), and 400 μM dbcAMP (Sigma-Aldrich) for further 2 weeks. To avoid apoptosis, 30 μM of Y27632 (Wako) was added at the initial plating.
Cells were fixed with 4% paraformaldehyde for 10 minutes, followed by permealization with 0.2% TritonX-100 for 10 minutes. After washing in PBS, cells were blocked in 5% normal donkey serum (Jackson ImmunoResearch Laboratories)/1% BSA (SIGMA A7906)/PBS and then labeled with the primary antibodies. After washing with PBS, primary antibodies were labeled with the corresponding fluorescence-conjugated secondary antibodies. Hoechst 33342 was used to detect nuclei.
Cells were visualized with anti-Nrf2 (pseudo-color), Cd11b (magenta, microglia), and GFAP (green, astrocyte) antibodies. Scale bar=25 μm.
Glial cells were treated with the compounds 1 and 2 for indicated periods and at indicated concentrations.

The next assay concerns mice injected with LPS. Kind of assay: LPS-induced neuro-inflammation and neurodegeneration in mice. Type of assay: in vivo, C57black/6J mice. As for the experimental part: (§2) C57black/6J mice, 8 to 9-week old, were intraperitoneally injected with LPS (O55:B5) (manufactured by Sigma, L2880) at 1 mg/kg once daily for four days. hiPSC-derived dopaminergic (DA) progenitors were transplanted in striatum of 4-week-old SCID mice. Drug treatment was performed one hour before LPS-injection or iPSC transplantation.
(§3) The compound 1 was initially dissolved in DMSO at a concentration of 100 mg/mL and diluted to desired concentration with 10% Tween 80 (polysorbate 80 (HX2), manufactured by HOF Corporation) in physiological saline solution, and subcutaneously delivered in a volume of 0.05 mL/kg. The compound 2 was suspended in 0.5% carboxymethylcellulose (Nacalai Tesque) and orally administered in a volume of 0.1 mL/kg at desired concentration. Drug-treated animals were anesthetized with isofluorane for blood sampling and subsequently perfused with physiological saline solution. Brain homogenates were prepared using the Beads Crusher μT-12 system (TAITEC) in five-volume of physiological saline solution. Concentration of target compounds or dopamine in serum and brain homogenates were analyzed by LC/MS using an Agilent 6420 Q-TOF mass spectrometer with an Agilent 1290 Nano-flow HPLC system (Agilent Technologies). For measurement of dopamine, 50 mg/mL ascorbic acid was added to avoid oxidization.
Adult mouse brains were perfused with PBS then fixed in 4% paraformaldehyde, and 40-μm sections were cut with a vibratome (Leica) or 20-μm sections with a cryostat (Leica) after equilibrating in 30% sucrose/PBS. After antigen retrieval using HistoOne (Nacalai Tesque), tissues were stained with indicated antibodies.
LPS was intraperitoneally administered to mice to induce neuro-inflammation. Drug (the compound 2) was administered one hour before the LPS injection to the mice. The drug was orally administered at a indicated dose once daily.
Glial activation and cytokine production were evaluated at day 1 after the administration. Degeneration of dopaminergic nerves were evaluated at day 7 and day 14 (FIGS. 4B and 4C). […]
Animals, N=5 to 6, were analyzed regarding each condition. […]

Assay [2] has as its system iPSC-derived DA neurons transplanted in striatum. Kind of assay: transplantation of hiPSC-derived DA neurons into murine striatum. Format: in vivo, SCID mice. To be noted: four weeks after the transplantation; mice; administered from one hour before surgery for four days. As for the experimental part:
as §2
as §3, with “Brain homogenates were prepared using the Beads Crusher μT-12 system (TAITEC) in five-volume of physiological saline solution.” left out, “For measurement of dopamine, 50 mg/mL ascorbic acid was added to avoid oxidization.” left out
Arrows indicate iPSC-derived cells that are co-labeled by TH or Nurr1 (both are dopaminergic markers). […] The transplanted DA neurons were identified by hNuclei staining and survived iPSC-derived DA neurons were quantified with co-staining of TH and Nurr1 dopaminergic markers. […]

The subject of assay [3] is hiPSC-derived dopaminergic neuron progenitors. Kind of assay: co-culture of hiPSC-derived dopaminergic neuron progenitors with murine glia under H2O2 oxidative stress. Format: cell-based, human. To be noted: H2O2 treatment. The procedure:
as §1, with “(Invitrogen).” for “(Invitrogen). For co-culture experiments, murine glial cell cultures were prepared from MGE (Medial Ganglionic Eminence) of embryonic day 13 and cultured in PLL-coated dish. Cultures were passaged twice with trypsin, and used for co-cultured assay with iPSC-derived neurons. 1039A1 iPS cells were established and maintained as described previously (Nakagawa et al., Sci Rep 4, 3594, 2014).”
The neuronal survival was evaluated according to the number of human nuclei by immunostaining (FIGS. 5A and 5B).
Dopaminergic markers of Nurr1 and TH were evaluated by qPCR (FIG. 5C). […]

Broadly, the IC50 is the concentration that inhibits the measured activity by half. A high value points to lower potency.

Turning to `c1cncc(-c2ccc3[nH]ncc3c2)c1` [Compound 1], at DYRK1A, it took 77 nM to reach half-maximal inhibition (IC50). The “up-regulation of proinflammatory cytokine gene expression by LPS stimulation” value in the assay with microglia is “suppressed effectively”. For the same molecule, the “induction of expression of several chemokines and iNOS mRNA” value in the assay with microglia (qPCR) was “also suppressed”. Further, the “suppression of cytokine production” value in the assay on microglia (cells treated with Nrf2 siRNA, qPCR, FIG. 2C) is reported as “not observed”. Also, in the assay on microglial cells BV-2, the “Nrf2 (Western blotting)” value is recorded as “up-regulated”, the “cyclin D1 (Western blotting)” value is “up-regulated” and the “p21 (Western blotting)” value is “up-regulated”. In addition, in assay [1] (control siRNA-treated cells), the Nrf2 expression entry is recorded as “increased”. Moreover, the “expression of Nrf2 in Cd11b-positive microglial cells” value in assay [1] was “induced”. Besides, the Nrf2 expression entry in assay [1] (p21 siRNA-treated cells) is “did not increase”.

On to `CNC1/C(=C/C(C)=O)Sc2ccc3occc3c21` (stereo not shown) [Compound 2], for which, at DYRK1A, half-maximal inhibition (IC50) was put at 32.9 nM. The “up-regulation of proinflammatory cytokine gene expression by LPS stimulation” value with microglia is given as “suppressed effectively”. In the assay with microglia (qPCR), the “induction of expression of several chemokines and iNOS mRNA” value is on record as “also suppressed”. The “loss of dopaminergic neurons (TH-positive cells in SNpc)” value in the assay on mice injected with LPS (LPS-injected mice, day 7 and day 14, FIGS. 4B and 4C) is given as “rescued”. Also, the cytokine production entry with mice injected with LPS (qPCR and ELISA, striatum tissues at day 1, oral once daily, FIGS. 4E and 4F) is “suppressed”. Further, in the assay with mice injected with LPS (qPCR on striatum tissues at day 1 from last LPS injection, oral once daily, FIG. 4D), the glial activation entry is “suppressed”. For the same molecule, in assay [2], the “survival rate of iPSC-derived DA neurons” value was “improves”. Further, the “survival of DA neurons” value in assay [3] (co-culture with glia, FIGS. 5A to 5C) is given as “increased depending on the added amount”. In addition, in assay [3] (without glia), the protection of neurons entry is recorded as “did not occur”. Also, the figures for the Nrf2 expression entry in assay [1] (control siRNA-treated cells) and in assay [1] (p21 siRNA-treated cells) were “increased” and “did not increase”, respectively. Also, the “expression of Nrf2 in Cd11b-positive microglial cells” value in assay [1] is on record as “induced”.
